Data from patent US20230272016A1, “PEPTIDES FOR IMMUNOTHERAPY” (Second Genome, Inc., priority 2020, published 2023).

Experiments:
[1] = test system: human purified monocyte-derived dendritic cells; test: Chemokine release from LPS stimulated monocyte-derived dendritic cells; assay type: cell-based; settings: LPS at low concentrations, suboptimal activation
Text: LPS was used at low concentrations for a suboptimal activation of dendritic cells in the presence of SG-3-00802 peptide or SG-3-05021 peptide.

CXCR3 = target: T1, CXCR3 (Homo sapiens, UniProt P49682); test: PathHunter β-Arrestin GPCR assay (gpcrMAX); assay type: cell-based; settings: vehicle DMSO = 0%, control ligand = 100%
T1 sequence (P49682 1-368): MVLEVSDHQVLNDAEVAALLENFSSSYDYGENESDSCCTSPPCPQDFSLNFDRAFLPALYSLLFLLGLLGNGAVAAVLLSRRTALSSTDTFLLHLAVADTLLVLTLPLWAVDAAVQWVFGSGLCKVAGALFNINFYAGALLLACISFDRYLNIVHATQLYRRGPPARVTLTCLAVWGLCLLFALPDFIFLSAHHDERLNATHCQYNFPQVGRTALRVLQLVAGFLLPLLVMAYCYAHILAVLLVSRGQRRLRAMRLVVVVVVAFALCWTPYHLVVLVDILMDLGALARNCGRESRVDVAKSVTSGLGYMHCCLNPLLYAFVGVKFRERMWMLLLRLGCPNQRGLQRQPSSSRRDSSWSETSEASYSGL
Text: (§1) The PathHunter® β-Arrestin Assay monitored activation of a panel of 168 G-protein coupled receptors (GPCRs) with […] activation of the GPCR in agonist and antagonist mode.
(§2) where the test sample is the peptide, the vehicle control=DMSO (0% activity), and the control ligand=control compound (100% activity).
(§3) Peptides SG-3-00802 and SG-3-05021 were identified as an agonist, an antagonist, a PAM (Positive Allosteric Modulator), or an inverse-agonist. Agonist, antagonist, PAM, and inverse-agonist were identified according to the guidelines in Table 18. The basal activity/noise is a % activity of −20% to 20% for both agonist and antagonist modes. A PAM (Positive Allosteric Modulator) binds to a receptor, at a different site than the agonist, to change the receptor's response to the agonist. An inverse-Agonist is a binding partner with agonistic shutting down of basal activity in the cell. An antagonist antagonizes the activity of a particular binding partner.

SSTR1 = target: T2, SSTR1 (Homo sapiens, UniProt P30872); test: PathHunter β-Arrestin GPCR assay (gpcrMAX); assay type: cell-based
T2 construct: expressed in transfected cells
Text: as §1, §2, §3

CXCR4 = target: T3, CXCR4 (Homo sapiens, UniProt P61073); test: PathHunter β-Arrestin GPCR assay (gpcrMAX); assay type: cell-based; settings: vehicle DMSO = 0%, control ligand = 100%
T3 construct: expressed in transfected cells
Text: as §1, §2, §3

CCR7 = target: T4, CCR7 (Homo sapiens, UniProt P32248); test: PathHunter β-Arrestin GPCR assay (gpcrMAX); assay type: cell-based; settings: vehicle DMSO = 0%, control ligand = 100%
T4 construct: expressed in transfected cells
T4 sequence (P32248 25-378): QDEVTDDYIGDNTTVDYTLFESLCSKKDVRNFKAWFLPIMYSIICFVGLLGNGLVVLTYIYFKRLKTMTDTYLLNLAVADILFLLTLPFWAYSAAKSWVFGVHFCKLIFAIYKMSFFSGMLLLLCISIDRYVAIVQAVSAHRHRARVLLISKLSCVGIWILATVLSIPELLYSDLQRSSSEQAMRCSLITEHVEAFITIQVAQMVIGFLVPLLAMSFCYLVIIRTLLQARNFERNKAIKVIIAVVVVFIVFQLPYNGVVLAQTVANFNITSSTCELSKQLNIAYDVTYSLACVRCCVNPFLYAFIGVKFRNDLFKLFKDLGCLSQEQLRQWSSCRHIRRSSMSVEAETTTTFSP
Text: as §1, §2, §3

RENCA tumors = test: RENCA murine adenocarcinoma syngeneic tumor model; assay type: in vivo, BALB/c mice; settings: for survival time (days) / tumor volume: peptide 2.5 mg/kg daily peritumorally; for survival time (days): anti-PD-1 10 mg/kg i.p., compared to PBS or anti-PD-1 alone; for tumor volume: anti-PD-1 10 mg/kg intraperitoneal, compared to PBS treated control mice
Method: To determine anti-tumor activity of SG-3-00802 in vivo, the RENCA murine adenocarcinoma model was used. It is a syngeneic, standardized experimental model of metastatic RCC. Briefly, BALB/c female mice were inoculated subcutaneously with RENCA cells. Established tumors were treated daily with 2.5 mg/kg SG-3-00802 peritumorally, alone or in combination with intraperitoneal administration of 10 mg/kg anti-PD-1 antibody. […] QD indicates administration of the peptide once a day. BID indicates administration of the peptide twice a day.
Balb/c female mice were implanted with RENCA cells in the left flank. When tumors were established and reach ˜100 mm^3 or 200 mm^3 mice were allocated into dosing groups. Each dosing group had 10-12 animals. Peptides were dosed peritumoral at 2.5 mg/kg BID for 7 d and anti-PD-1 was dosed intraperitoneally at 10 mg/kg TIW for a total of 3 doses. Mice were monitored for tumor growth and survival. Tumor volumes were measured twice a week. A survival event (censoring) was reached when tumor volume reached 1000 mm^3 and additional survival events were defined as animals that had to be euthanized due to ulceration.
Additional studies were performed to test survival and tumor volume responses to a re-challenge event. In one study, mice were allocated into dosing groups when tumors reached ˜100 mm^3. During the initial dosing study, time 0 was the first day of seven days of dosing. […] Re-implantation was completed on day 39 after dosing completion. Treated mice were tumor free for >20 days before being re-challenge. […] Tumor volume and survival was been monitored as previously described. In the re-challenge experiment, time 0 is day 10 after re-challenge dosing.
In the initial dosing experiment, tumor volumes were smaller in both the SG-3-00802 alone treatment and SG-3-00802 with anti-PD-1 antibody combinatorial treatment 40 days after dosing started (FIGS. 32A-32B).
In another re-challenge study, mice were instead allocated into dosing groups when tumors reached ˜200 mm^3. The same procedure as described above was used, except where indicated. […] Re-implantation was completed on day 37 after dosing completion, and time 0 is day 12 post re-challenge. […] In the initial dosing experiment, tumor volumes were smaller in both the SG-3-00802 alone treatment and SG-3-00802 with anti-PD-1 antibody combinatorial treatment 15 days after dosing started (FIGS. 35A-35B).
To determine anti-tumor activity of SG-3-00802 in vivo, the RENCA murine adenocarcinoma model was used. Briefly, BALB/c female mice were inoculated subcutaneously with RENCA cells. Established tumors were treated daily with 2.5 mg/kg SG-3-00802 peritumorally, alone or in combination with intraperitoneal administration of 10 mg/kg anti-PD-1 antibody. […]

T2 sequence (P30872 whole entry): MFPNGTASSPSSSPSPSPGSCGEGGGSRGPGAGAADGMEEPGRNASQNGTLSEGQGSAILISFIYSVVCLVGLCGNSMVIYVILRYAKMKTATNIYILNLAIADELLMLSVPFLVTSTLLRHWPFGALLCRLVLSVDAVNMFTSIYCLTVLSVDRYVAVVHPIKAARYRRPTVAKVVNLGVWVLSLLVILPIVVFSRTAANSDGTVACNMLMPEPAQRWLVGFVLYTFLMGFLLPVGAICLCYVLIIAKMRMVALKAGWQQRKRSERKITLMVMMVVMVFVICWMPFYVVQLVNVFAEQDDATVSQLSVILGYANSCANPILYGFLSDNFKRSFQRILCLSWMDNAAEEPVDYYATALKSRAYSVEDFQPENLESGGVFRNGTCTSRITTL
T3 sequence (P61073 whole entry): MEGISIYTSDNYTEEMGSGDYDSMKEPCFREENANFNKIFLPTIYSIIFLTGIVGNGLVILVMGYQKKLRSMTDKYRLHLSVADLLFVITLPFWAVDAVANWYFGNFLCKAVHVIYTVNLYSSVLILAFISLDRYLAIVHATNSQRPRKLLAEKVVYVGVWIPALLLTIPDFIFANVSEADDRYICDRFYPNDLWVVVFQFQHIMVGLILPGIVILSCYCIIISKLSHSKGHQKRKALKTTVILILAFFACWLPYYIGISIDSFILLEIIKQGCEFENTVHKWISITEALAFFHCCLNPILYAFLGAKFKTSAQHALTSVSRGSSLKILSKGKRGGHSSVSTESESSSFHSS

Sequence | CXCL10 chemokine release [1] | % Agonist Activity (gpcrMAX Agonist Mode) (CXCR3) [%] | % Antagonist Activity (gpcrMAX Antagonist Mode) (CXCR3) [%] | GPCR target assay Interpretation (SSTR1) | % Agonist Activity (gpcrMAX Agonist Mode) (CXCR4) [%] | % Antagonist Activity (gpcrMAX Antagonist Mode) (CXCR4) [%] | % Agonist Activity (gpcrMAX Agonist Mode) (CCR7) [%] | % Antagonist Activity (gpcrMAX Antagonist Mode) (CCR7) [%] | survival time (days) (RENCA tumors) | tumor volume (RENCA tumors) | volume of syngeneic RENCA tumors, dose dependence (RENCA tumors; QD or BID administration of the peptide) | # of animals with complete tumor regression out of total animals per group (primary study) (RENCA tumors; Table 16, ~100 mm^3 study) | # of animals without tumor progression out of re-challenged animals per group (re-challenge study) (RENCA tumors; Table 16, ~100 mm^3 study) | # of animals with complete tumor regression out of total animals per group (primary study) (RENCA tumors; Table 17, ~200 mm^3 study) | survival, initial dosing (RENCA tumors; dosing groups allocated at tumors ~100 mm^3) | survival, initial dosing (RENCA tumors; dosing groups allocated at tumors ~200 mm^3) | tumor volumes, initial dosing experiment (RENCA tumors; ~100 mm^3 study, 40 days after dosing started) | percent of mice surviving after re-challenge (RENCA tumors; ~100 mm^3 study, re-implantation on day 39 after dosing completion, opposite flank) | tumor volumes after re-challenge (RENCA tumors; ~100 mm^3 study, vs PBS-treated control mice) | tumor volumes, initial dosing experiment (RENCA tumors; ~200 mm^3 study, 15 days after dosing started)
LGKTDWIEKYFKVKKEKIDKMQRFLQG [SG-3-05021, peptide from bacteroides.clarus.dsm.22519] | dose-dependent increase | −4 | −20 | Inverse-agonist and PAM | 1 | 10 | 0 | −18 | survived a longer time | decrease in tumor volume |  |  |  |  |  |  |  |  |  | 
MKVRPSVKPMCEKCKIIRRKGRVMVICENPKHKQRQG [SG-3-00802, peptide from oscillibacter.sp t_155102] | dose-dependent increase |  |  | Inverse-agonist |  |  |  |  | survived a longer time | robust decrease | dose-dependent manner | 2/12 | 2/2 | 0/10 | increased survival | increased survival | smaller | increased percent of mice surviving | remained smaller than PBS-treated control mice | smaller
